Data from US7629323B2, “Manipulation of neuronal ion channels” (Northwestern University, priority 2003, dated 2009).

Columns and labels:
[1] = tested on: Kv3 channels in FS neurons; test: Whole-cell voltage clamp of Kv3 delayed rectifier currents in acutely dissociated FS neurons; assay type: cell-based, rat
Text: Tissue preparation. […] Hippocampal interneurons and GP were identified as CaMKII negative, GAD67 and parvalbumin positive neurons by single cell RT-PCR detection of corresponding mRNAs following physiology experiments (see below).
Electrophysiology. Whole-cell recordings used standard techniques^27,28. The internal solution consisted of (in mM): 30-90 K2SO4, 0-60 N-methyl-D-glucamine, 2 MgCl2, 40 HEPES, 5 EGTA, 12 phosphocreatine, 2 Na2ATP, 0.2 Na3GTP, and 0.1 leupeptin, pH 7.2 with H2SO4 (osmolarity 260-270 mOsm/l). The external solution consisted of (in mM): 140 Na-isethionate, 2 KCl, 4 MgCl2, 10 HEPES, 12 glucose and 0.001 TTX, pH 7.35 with NaOH (osmolarity 295-305 mOsm/l). The internal solution for current clamp recordings consisted of (in mM) 110 potassium methylsulphate, 2 MgCl2, 40 HEPES, 5 EGTA, 12 phosphocreatine, 2 Na2ATP, 0.2 Na3GTP, and 0.1 leupeptin, pH 7.2 with H2SO4 (osmolarity 260-270 mOsm/l). In the case of current clamp recordings, TTX was omitted from external solution. For the recordings in the presence of Ca^+2 ions EGTA was omitted from internal solution and 4 mM of MgCl2 was substituted by 2 mM of CaCl2 and 2 mM of MgCl2. All drugs were obtained from Sigma (St. Louis, […]) except BDS-I that was obtained from Alomone Labs (Jerusalem, Israel). Solutions were applied by gravity fed sewer pipe system. Recordings were obtained with Axon Instruments 200 patch-clamp amplifier and controlled and monitored with a PC running pClamp software (version 7.0) (Axon Instruments Inc., Union City, Calif.). […] After seal rupture, series resistance (2-10 MΩ) was compensated (75-90%) and periodically monitored. […] Activation data were fit with a Boltzmann equation of the form: 1/(1+exp ((Vh−V)/Vc), V stands for membrane potential. In the case of Kv3.4a current, an estimate of peak current was obtained by single exponential fit of decay phase extrapolated to the start of test pulse. In all other instances the voltage dependence of the currents was obtained from the amplitude of tail currents measured following 200 msec long voltage steps. […]

[2] = target: T1, homomeric Kv3.4a channels (Rattus norvegicus, UniProt Q63734); test: Whole-cell recording of homomeric Kv3.4a channels expressed in HEK293 cells; assay type: cell-based; conditions: n=5
T1 construct: expressed in transfected cells; host or cells: HEK293
T1 sequence (Q63734 1-625): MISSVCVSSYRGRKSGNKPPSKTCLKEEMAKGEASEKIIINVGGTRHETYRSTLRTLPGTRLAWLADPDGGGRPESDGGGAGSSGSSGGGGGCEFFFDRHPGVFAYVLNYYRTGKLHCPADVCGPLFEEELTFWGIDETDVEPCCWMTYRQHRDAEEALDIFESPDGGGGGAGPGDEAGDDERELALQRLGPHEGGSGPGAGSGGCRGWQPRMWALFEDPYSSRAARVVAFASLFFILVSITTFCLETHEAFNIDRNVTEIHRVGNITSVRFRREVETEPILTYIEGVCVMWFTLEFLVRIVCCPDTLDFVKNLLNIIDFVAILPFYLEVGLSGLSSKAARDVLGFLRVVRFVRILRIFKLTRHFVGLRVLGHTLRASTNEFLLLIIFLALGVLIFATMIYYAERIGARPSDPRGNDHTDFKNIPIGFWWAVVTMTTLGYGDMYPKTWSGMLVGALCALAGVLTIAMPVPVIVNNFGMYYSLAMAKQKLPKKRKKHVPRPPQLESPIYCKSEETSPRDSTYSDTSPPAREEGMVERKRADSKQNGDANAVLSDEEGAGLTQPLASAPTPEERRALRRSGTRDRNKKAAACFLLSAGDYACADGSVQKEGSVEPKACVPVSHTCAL
Text: Electrophysiology. Whole-cell recordings used standard techniques^27,28. The internal solution consisted of (in mM): 30-90 K2SO4, 0-60 N-methyl-D-glucamine, 2 MgCl2, 40 HEPES, 5 EGTA, 12 phosphocreatine, 2 Na2ATP, 0.2 Na3GTP, and 0.1 leupeptin, pH 7.2 with H2SO4 (osmolarity 260-270 mOsm/l). The external solution consisted of (in mM): 140 Na-isethionate, 2 KCl, 4 MgCl2, 10 HEPES, 12 glucose and 0.001 TTX, pH 7.35 with NaOH (osmolarity 295-305 mOsm/l). The internal solution for current clamp recordings consisted of (in mM) 110 potassium methylsulphate, 2 MgCl2, 40 HEPES, 5 EGTA, 12 phosphocreatine, 2 Na2ATP, 0.2 Na3GTP, and 0.1 leupeptin, pH 7.2 with H2SO4 (osmolarity 260-270 mOsm/l). In the case of current clamp recordings, TTX was omitted from external solution. For the recordings in the presence of Ca^+2 ions EGTA was omitted from internal solution and 4 mM of MgCl2 was substituted by 2 mM of CaCl2 and 2 mM of MgCl2. […] Recordings were obtained with Axon Instruments 200 patch-clamp amplifier and controlled and monitored with a PC running pClamp software (version 7.0) (Axon Instruments Inc., Union City, Calif.). […] After seal rupture, series resistance (2-10 MΩ) was compensated (75-90%) and periodically monitored. […]
Single cell RT-PCR (scRT-PCR). […] In the case of co-transfection with Kv3.4a and Kv3.1b cDNA, single cell RT-PCR was used to confirm the presence of both mRNAs in the recorded cell. […]

BDS-I (AAPCFCSGKPGRGDLWILRGTCPGGYGYTSNCYKWPNICCYPH)
block of TEA-sensitive, Kv3 channel currents in FS neurons [1]: efficiently blocked
effect on delayed rectifier currents evoked by depolarization in FS neurons [1]: slowed the rising phase of delayed rectifier currents evoked by depolarization and reduced their amplitude
time for substantial unblocking of channels containing Kv3.4 subunits ([1]; at +20 mV): more than 5 msec
effect on homomeric Kv3.4a channel currents [2]: slowed the rising phase of the currents but led to larger currents later in the step
